# Source: patent US7288258B2, “Polyepitopic protein fragments of the E6 and E7 proteins of HPV, their production and their use particularly in vaccination” (Peptide Immune Ligands, priority 1999, dated 2007)
# Experiments:
# Assay in all cases: association of peptide with HLA molecules and stability of the complex
# Settings in all cases: stable complex: peptide remains bound for at least about 3 hours at 37° C.
# [1] = tested on: HLA molecules of the A2 type; format: binding, human
# Excerpt: (§1) The different epitopes of the polyepitopic region of the predetermined protein, and delimiting the epitopic protein fragments, are preferably selected from the peptides; • binding to a predetermined molecule of MCH, particularly to a molecule of the predetermined HLA type, and this from concentrations of about 10^−6 M to about 10^−10 M in peptide for concentrations of about 10^−7 M of HLA molecules, particularly under the conditions described hereafter, • and forming a stable complex with said MCH molecule, namely particularly a complex in which said peptide remains bound to said molecule for at least about 3 hours at 37° C.
# (§2) By way of illustration, the above-mentioned epitopes of the invention are selected from among the peptides adapted: • on the one hand of associating with the molecules of MCH, particularly by using the following method: • incubation (particularly for about 2 hours at 25° C., then about 15 hours at 4° C.) of the peptide in the presence of MCH molecules, from the lysis of human or animal cells, or purified particularly by affinity chromatography from human or animal cell lines, • trapping complexes formed during the preceding step on a solid support covered with a first antibody, particularly monoclonal, recognizing specifically the CMH molecules in their configuration dependent on their connection to said peptide, • addition to the preceding solid support of a second marked antibody, particularly by coupling to a radioactive, enzymatic or fluorescent marker, said marked antibody recognizing specifically either the long chains of MCH in their configuration dependent on their connection to the peptide, or the short chain of MCH or the β2-microglobulin binding specifically to the different long chains of the MCH in their above-mentioned configuration, • detection, after rinsing of the solid support, of the possible presence of the second marked antibody remaining fixed on the solid support, signifying an association effect between the molecules of MCH and the peptide studied, • and, on the other hand, forming a complex with said MCH molecules, whose stability can be evaluated by the use of a method of following according to time the connection established between the peptide and the MCH molecules, this method being preferably carried out according to a protocol identical to the preceding method, but in which the incubation step of the peptide in the presence of MCH molecules on the solid support covered with said first antibody, is preceded by a preliminary step of eliminating the free peptide adapted that may be present in the reaction medium, particularly by washing the solid support, said incubation step being carried out (preferably at a temperature of 37° C.) for variable times of 1 hours, 3 hours, 5 hours, 24 hours and 48 hours.
# (§3) As mentioned above, the epitopes of the invention should be recognized by the T cells in association with the MCH molecules and associate with these latter, particularly in the framework of the practice of the recognition test described above. This association can be weak (detectable at concentrations of peptide analogs of the order of 10^−4 to 10^−5 M), intermediate (detectable at concentrations of peptide analogs of the order of 10^−6 to 10^−7 M), or strong (detectable at concentrations of peptide analogs of the order of 10^−8 to 10^−9 M). The peptides associated with the MCH molecules in the scope of the present invention are preferably adapted to bond during at least about 3 hours, to said MCH molecules.
# [2] = tested on: HLA molecules of the B8 type; format: binding, human
# Excerpt: as §1, §2, §3
# [3] = tested on: HLA molecules of the B44 type; format: binding, human
# Excerpt: as §1, §2, §3
# [4] = biological target: T1, HLA molecules of the B7 type (Homo sapiens, UniProt P01889); format: binding
# T1 construct: endogenous in cells
# Excerpt: as §1, §2, §3
# [5] = tested on: HLA molecules of the B35 type; format: binding, human
# Excerpt: as §1, §2, §3
# [6] = tested on: HLA molecules of the A24 type; format: binding, human
# Excerpt: as §1, §2, §3
# [7] = tested on: HLA molecules of the A29 type; format: binding, human
# Excerpt: as §1, §2, §3
# [8] = tested on: HLA molecules of the B51 type; format: binding, human
# Excerpt: as §1, §2, §3
# [9] = biological target: T2, HLA molecules of the A3 type (Homo sapiens, UniProt P04439); format: binding
# T2 construct: endogenous in cells
# Excerpt: as §1, §2, §3
# [10] = tested on: HLA molecules of the A11 type; format: binding, human
# Excerpt: as §1, §2, §3
# [11] = tested on: HLA molecules of the B27 type; format: binding, human
# Excerpt: as §1, §2, §3
# T1 sequence (P01889 25-362): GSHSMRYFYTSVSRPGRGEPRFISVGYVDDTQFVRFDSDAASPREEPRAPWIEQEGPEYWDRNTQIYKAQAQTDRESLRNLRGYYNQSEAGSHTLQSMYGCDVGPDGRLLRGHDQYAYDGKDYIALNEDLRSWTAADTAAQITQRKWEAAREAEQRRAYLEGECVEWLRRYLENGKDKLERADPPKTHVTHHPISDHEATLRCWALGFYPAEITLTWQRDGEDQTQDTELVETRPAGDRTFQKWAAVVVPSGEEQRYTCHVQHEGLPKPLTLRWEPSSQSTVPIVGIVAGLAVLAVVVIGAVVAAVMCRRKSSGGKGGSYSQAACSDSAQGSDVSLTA
# T1 sequence (P61769 21-119, further chain): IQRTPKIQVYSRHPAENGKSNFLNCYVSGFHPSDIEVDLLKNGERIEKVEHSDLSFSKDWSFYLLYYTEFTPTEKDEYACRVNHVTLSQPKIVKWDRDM
# T2 sequence (P61769 21-119): as the sequence (P61769 21-119, further chain) above
# T2 sequence (P04439 25-365): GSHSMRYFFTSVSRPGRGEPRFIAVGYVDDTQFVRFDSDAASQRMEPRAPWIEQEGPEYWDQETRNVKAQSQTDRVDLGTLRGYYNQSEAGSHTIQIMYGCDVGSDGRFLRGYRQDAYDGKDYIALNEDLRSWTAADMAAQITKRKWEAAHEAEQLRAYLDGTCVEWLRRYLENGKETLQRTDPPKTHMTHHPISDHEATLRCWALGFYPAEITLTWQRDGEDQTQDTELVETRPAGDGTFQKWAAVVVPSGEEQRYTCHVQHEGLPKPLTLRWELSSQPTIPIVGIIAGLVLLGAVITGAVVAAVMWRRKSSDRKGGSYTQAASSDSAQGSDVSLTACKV
sequence,measurement,setting,value
STPPPGTRV (listed as Homo sapiens),binding stably to HLA molecules of the A2 type,[1],binding stably
DKKQRFHNI (Human Papillomavirus),binding stably to HLA molecules of the B8 type,[2],binding stably
TIHDIILRCV,binding stably to HLA molecules of the A2 type,[1],binding stably
PEEKQRHL (Human Papillomavirus),binding stably to HLA molecules of the B44 type,[3],binding stably
RPRKLPQL (Human Papillomavirus),binding stably to HLA molecules of the B7 type,[4],binding stably
same,binding stably to HLA molecules of the B35 type,[5],binding stably
TYSPALNKMF,binding stably to HLA molecules of the A24 type,[6],binding stably
LEDLLMGTL (Human Papillomavirus),binding stably to HLA molecules of the A29 type,[7],binding stably
same,binding stably to HLA molecules of the B44 type,[3],binding stably
YDFAFRDL (Human Papillomavirus),binding stably to HLA molecules of the A29 type,[7],binding stably
same,binding stably to HLA molecules of the B44 type,[3],binding stably
PPGTRVRAM (listed as Homo sapiens),binding stably to HLA molecules of the B35 type,[5],binding stably
LPQLCTEL (Human Papillomavirus),binding stably to HLA molecules of the B51 type,[8],binding stably
TPTLHEYML (Human Papillomavirus),binding stably to HLA molecules of the B35 type,[5],binding stably
IVYRDGNPY,binding stably to HLA molecules of the A3 type,[9],binding stably
same,binding stably to HLA molecules of the A11 type,[10],binding stably
QLCTELQTTI (Human Papillomavirus),binding stably to HLA molecules of the A2 type,[1],binding stably
RRPILTIITL (listed as Homo sapiens),binding stably to HLA molecules of the B27 type,[11],binding stably
TELQTTIHDI (Human Papillomavirus),binding stably to HLA molecules of the A29 type,[7],binding stably
same,binding stably to HLA molecules of the B44 type,[3],binding stably
AEPDRAHY (Human Papillomavirus),binding stably to HLA molecules of the A29 type,[7],binding stably
same,binding stably to HLA molecules of the B44 type,[3],binding stably
ITLEDSSGN (listed as Homo sapiens),binding stably to HLA molecules of the A2 type,[1],binding stably
TYQGSYGFRL,binding stably to HLA molecules of the A24 type,[6],binding stably
RVRAMAIYK (listed as Homo sapiens),binding stably to HLA molecules of the A3 type,[9],binding stably
SYGFRLGFL (listed as Homo sapiens),binding stably to HLA molecules of the A24 type,[6],binding stably
YMLDLQPETT,binding stably to HLA molecules of the A2 type,[1],binding stably
TLGIVCPI (Human Papillomavirus),binding stably to HLA molecules of the A2 type,[1],binding stably
RPILTIITL,binding stably to HLA molecules of the B7 type,[4],binding stably
same,binding stably to HLA molecules of the B35 type,[5],binding stably
ALNKMFCQL (listed as Homo sapiens),binding stably to HLA molecules of the B35 type,[5],binding stably
VEGNLRVEY (listed as Homo sapiens),binding stably to HLA molecules of the B44 type,[3],binding stably
LEQQYNKPL,binding stably to HLA molecules of the A29 type,[7],binding stably
same,binding stably to HLA molecules of the B44 type,[3],binding stably
APPQHLIRV,binding stably to HLA molecules of the B7 type,[4],binding stably
CYSLYGTTL (Human Papillomavirus),binding stably to HLA molecules of the A24 type,[6],binding stably
TFRHSVVV (listed as Homo sapiens),binding stably to HLA molecules of the A24 type,[6],binding stably
VYDFAFRDL (Human Papillomavirus),binding stably to HLA molecules of the A24 type,[6],binding stably
NIVTFCCK (Human Papillomavirus),binding stably to HLA molecules of the A3 type,[9],binding stably
same,binding stably to HLA molecules of the A11 type,[10],binding stably
CVYCKQQL (Human Papillomavirus),binding stably to HLA molecules of the B8 type,[2],binding stably
